# Counter-ions that a name gives are not always drawn. Like-named read-outs stand apart in the source and are kept apart here.
# Experiments:
# HBV = HBV primary assay (HepG2-2.2.15 antiviral assay); format: cell-based; details: Hepatitis B virus, Test Concentration 10 μM, read-out: Antiviral Activity Percent inhibition of cell control
# Description: The HBV primary assay developed was conducted similarly to that described by Korba et al., (Antiviral Res. 15: 217-228 (1991) and Antiviral Res. 19: 55-70 (1992)) with the exception that viral DNA detection and quantification have been improved and simplified (Korba et al., Antiviral Res. 19: 55-70 (1992)).
# The HepG2-2.2.15 is a stable cell line producing high levels of the wild-type aywl strain of HBV. Briefly, HepG2-2.2.15 cells were plated in 96-well plates. Only the interior wells were utilized to reduce “edge effects” observed during cell culture; the exterior wells are filled with complete medium to help minimize sample evaporation. […] Six days following the initial administration of the test compound, the cell culture supernatant was collected, treated with pronase and DNAse and then used in a real-time quantitative TaqMan PCR assay for direct measurement of HBV DNA copies using an ABI Prism 7900 sequence detection system (Applied Biosystems, Foster City, Calif.).
# The antiviral activity of each test compound was calculated by comparing its HBV DNA copies against that of the untreated control cells (100%) to derive percent inhibition level. […] Cytotoxicity of the compound was determined by comparing its cell viability with that of the untreated cell control to derive percentage of the cell control.
# Jurkat cells = experiment: Leukemia cell growth inhibition, Jurkat; format: cell-based; details: Homo sapiens; Jurkat (Adult T cell leukemia)
# H460 cells = experiment: Dasatinib-resistant cell growth inhibition (MTT), H460; format: cell-based; details: Homo sapiens, NCI-H460, 8.0×10^3 cells/well, 1.5% FBS, 78 Hr
# Description: The OD570 was measured using microplate reader. Growth inhibition curves and EC50/IC50 were determined using GraphPad Prism 4 statistical software. Data was normalized to represent percent of maximum response.
# [1] = tested on: HT29 (human colon cancer) xenograft; experiment: Oral potency in staged HT29 mouse xenografts; details: 25 mg/kg bid; at day 5 dose lowered to 15 mg/kg bid
# L3.6pl cell line = experiment: Cell growth inhibition (BrdU assay), L3.6pl; format: cell-based, human
# Text: L3.6pl cells are previously described in Trevino et al. Am J. Pathol.
# HT29 cell line = experiment: Cell growth inhibition (BrdU assay), HT29; format: cell-based, human
# Description: The HT29 cell line is a NCI standard human colon carcinoma cell line.
# (§1) In the BrdU Assay for cell growth inhibition, quantitation of cell proliferation was based on the measurement of BrdU incorporation during DNA synthesis. The Cell Proliferation ELISA BrdU assay kit (colorimetric) was obtained from Roche Applied Science and performed as per vendor instructions.
# (§2) The growth inhibition (GI) is determined from the formula GI=(T0−Tn×100/T0−CONn) where T0 is the BrdU growth of untreated cells at time “0”, Tn is the BrdU growth of treated cells at day “n” and CONn is the control BrdU growth of control cells at day “n”. The GI50 was extrapolated and the data plotted using XL-Fit 4.0 software.
# (§3) For 96 well culture plate experiments, c-Src 3T3 medium was supplemented with 10 mM HEPES buffer. HT-29 cells were seeded in standard tissue culture 96-well plates and c-Src 3T3 cells were seeded in 96-well plates coated with Poly-D-lysine (BIOCOAT™). To increase CO2 diffusion, c-Src 3T3 96-well plates were incubated with their lids raised by ˜2 mm using sterile rubber caps.
# (§4) Samples were reconstituted in DMSO at 20 mM and intermediate dilutions made using DMEM containing 10% FBS. […] Plates were assayed for BrdU and the data analyzed as above for GI50.
# c-Src527F/NIH3T3 cells = experiment: Cell growth inhibition (BrdU assay), c-Src 3T3; format: cell-based; details: Mus musculus
# Description: The cells were routinely cultured in DMEM supplemented with Fetal Bovine Serum (2.0% v/V), L-glutamine (2 mM) and Sodium Pyruvate (1 mM).
# as §1, §2, §3, §4
# Abl(h) = Abl(h) (Homo sapiens, UniProt P00519); experiment: Isolated kinase activity, Abl; format: biochemical; details: @ 10 μM
# EGFR(h) = EGFR(h) (Homo sapiens, UniProt P00533); experiment: Isolated kinase activity, EGFR; format: biochemical; details: @ 10 μM
# EGFR(h), sequence (P00533 25-1210): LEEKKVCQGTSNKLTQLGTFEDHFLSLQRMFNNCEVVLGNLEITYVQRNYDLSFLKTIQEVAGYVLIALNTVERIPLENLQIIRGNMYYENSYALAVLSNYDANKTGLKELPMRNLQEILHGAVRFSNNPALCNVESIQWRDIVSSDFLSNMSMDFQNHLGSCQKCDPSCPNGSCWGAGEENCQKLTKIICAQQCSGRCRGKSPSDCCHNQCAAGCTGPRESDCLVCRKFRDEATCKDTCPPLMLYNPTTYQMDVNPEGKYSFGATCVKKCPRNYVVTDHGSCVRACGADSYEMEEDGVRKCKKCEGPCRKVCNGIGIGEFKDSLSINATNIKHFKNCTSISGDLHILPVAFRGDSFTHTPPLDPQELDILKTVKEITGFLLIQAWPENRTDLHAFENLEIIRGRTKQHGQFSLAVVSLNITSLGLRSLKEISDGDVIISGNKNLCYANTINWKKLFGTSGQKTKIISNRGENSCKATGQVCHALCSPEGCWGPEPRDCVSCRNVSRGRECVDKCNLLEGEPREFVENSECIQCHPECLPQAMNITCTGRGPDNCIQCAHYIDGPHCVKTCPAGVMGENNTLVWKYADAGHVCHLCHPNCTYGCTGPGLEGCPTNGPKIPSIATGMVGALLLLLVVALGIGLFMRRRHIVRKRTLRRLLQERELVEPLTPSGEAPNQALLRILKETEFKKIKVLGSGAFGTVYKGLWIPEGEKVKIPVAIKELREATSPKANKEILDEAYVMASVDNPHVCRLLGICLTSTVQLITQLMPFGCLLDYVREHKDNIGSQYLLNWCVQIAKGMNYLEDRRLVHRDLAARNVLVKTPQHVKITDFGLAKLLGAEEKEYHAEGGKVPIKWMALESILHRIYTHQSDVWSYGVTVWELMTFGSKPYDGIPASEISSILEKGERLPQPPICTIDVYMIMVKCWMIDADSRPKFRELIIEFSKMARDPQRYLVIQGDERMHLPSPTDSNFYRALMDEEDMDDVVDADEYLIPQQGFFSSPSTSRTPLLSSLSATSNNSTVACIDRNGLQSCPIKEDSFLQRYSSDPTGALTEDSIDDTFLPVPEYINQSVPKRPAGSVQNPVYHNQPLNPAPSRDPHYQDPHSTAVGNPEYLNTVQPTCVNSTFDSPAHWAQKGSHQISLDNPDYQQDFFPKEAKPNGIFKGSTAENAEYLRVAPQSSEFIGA
# FGFR2(h) = FGFR2(h) (Homo sapiens, UniProt P21802); experiment: Isolated kinase activity, FGFR2; format: biochemical; details: @ 10 μM
# Fyn(h) = Fyn(h) (Homo sapiens, UniProt P06241); experiment: Isolated kinase activity, Fyn; format: biochemical; details: @ 10 μM
# IGF-1R(h) = IGF-1R(h) (Homo sapiens, UniProt P08069); experiment: Isolated kinase activity, IGF-1R; format: biochemical; details: @ 10 μM
# IGF-1R(h), sequence (P08069 31-1367): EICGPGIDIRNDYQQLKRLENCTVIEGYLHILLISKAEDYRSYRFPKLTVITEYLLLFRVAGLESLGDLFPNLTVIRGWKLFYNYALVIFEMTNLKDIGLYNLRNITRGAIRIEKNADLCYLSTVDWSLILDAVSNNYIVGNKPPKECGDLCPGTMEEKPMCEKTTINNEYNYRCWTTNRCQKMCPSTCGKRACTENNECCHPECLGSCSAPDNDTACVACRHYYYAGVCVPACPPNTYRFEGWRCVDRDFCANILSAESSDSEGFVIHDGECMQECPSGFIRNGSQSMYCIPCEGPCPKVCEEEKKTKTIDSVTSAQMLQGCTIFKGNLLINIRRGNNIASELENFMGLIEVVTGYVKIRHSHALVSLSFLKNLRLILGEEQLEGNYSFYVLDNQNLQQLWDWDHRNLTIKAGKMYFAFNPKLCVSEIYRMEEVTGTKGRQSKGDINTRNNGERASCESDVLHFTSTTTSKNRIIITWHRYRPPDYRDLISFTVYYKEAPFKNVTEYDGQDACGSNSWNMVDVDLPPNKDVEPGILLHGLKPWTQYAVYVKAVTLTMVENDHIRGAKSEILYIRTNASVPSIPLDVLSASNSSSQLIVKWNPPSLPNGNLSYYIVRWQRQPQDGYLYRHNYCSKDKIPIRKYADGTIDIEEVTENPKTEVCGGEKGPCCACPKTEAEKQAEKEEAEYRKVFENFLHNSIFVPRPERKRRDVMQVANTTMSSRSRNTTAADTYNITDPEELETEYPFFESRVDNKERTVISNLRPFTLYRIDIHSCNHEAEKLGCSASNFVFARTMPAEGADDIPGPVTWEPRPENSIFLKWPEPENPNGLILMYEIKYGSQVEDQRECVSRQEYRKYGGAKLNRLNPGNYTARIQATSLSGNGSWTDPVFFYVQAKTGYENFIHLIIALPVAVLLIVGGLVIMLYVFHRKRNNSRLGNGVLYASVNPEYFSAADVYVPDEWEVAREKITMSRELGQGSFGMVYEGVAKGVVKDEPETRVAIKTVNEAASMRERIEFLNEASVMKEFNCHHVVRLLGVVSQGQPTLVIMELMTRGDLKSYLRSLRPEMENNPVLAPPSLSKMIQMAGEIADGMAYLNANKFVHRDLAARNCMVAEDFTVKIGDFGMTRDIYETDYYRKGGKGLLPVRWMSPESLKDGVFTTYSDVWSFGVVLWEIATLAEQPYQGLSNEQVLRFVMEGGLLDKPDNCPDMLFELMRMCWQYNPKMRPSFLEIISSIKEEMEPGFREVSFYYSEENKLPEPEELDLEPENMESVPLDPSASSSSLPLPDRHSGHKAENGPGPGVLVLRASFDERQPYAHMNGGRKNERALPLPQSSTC
# IR(h) = IR(h) (Homo sapiens, UniProt P06213); experiment: Isolated kinase activity, IR; format: biochemical; details: @ 10 μM
# Lck(h) = Lck(h) (Homo sapiens, UniProt P06239); experiment: Isolated kinase activity, Lck; format: biochemical; details: @ 10 μM
# Lyn(h) = Lyn(h) (Homo sapiens, UniProt P07948); experiment: Isolated kinase activity, Lyn; format: biochemical; details: @ 10 μM
# MAPK2(h) = MAPK2(h) (Homo sapiens, UniProt P28482); experiment: Isolated kinase activity, MAPK2; format: biochemical; details: @ 10 μM
# MAPK2(h), sequence (P28482 whole entry): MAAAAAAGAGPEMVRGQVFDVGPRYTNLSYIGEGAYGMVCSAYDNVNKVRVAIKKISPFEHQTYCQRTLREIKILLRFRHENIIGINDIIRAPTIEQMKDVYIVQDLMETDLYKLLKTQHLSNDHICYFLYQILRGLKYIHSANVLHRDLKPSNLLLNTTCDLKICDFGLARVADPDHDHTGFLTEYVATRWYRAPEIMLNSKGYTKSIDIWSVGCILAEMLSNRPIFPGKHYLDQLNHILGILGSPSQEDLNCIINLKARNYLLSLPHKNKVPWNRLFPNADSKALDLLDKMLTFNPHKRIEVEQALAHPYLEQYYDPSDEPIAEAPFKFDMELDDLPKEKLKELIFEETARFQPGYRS
# PDGFRβ(h) = PDGFRβ(h) (Homo sapiens, UniProt P09619); experiment: Isolated kinase activity, PDGFRβ; format: biochemical; details: @ 10 μM
# PKCα(h) = PKCα(h) (Homo sapiens, UniProt P17252); experiment: Isolated kinase activity, PKCα; format: biochemical; details: @ 10 μM
# Pyk2(h) = Pyk2(h) (Homo sapiens, UniProt Q14289); experiment: Isolated kinase activity, Pyk2; format: biochemical; details: @ 10 μM
# Yes(h) = Yes(h) (Homo sapiens, UniProt P07947); experiment: Isolated kinase activity, Yes; format: biochemical; details: @ 10 μM
# Yes(h), sequence (P07947 whole entry): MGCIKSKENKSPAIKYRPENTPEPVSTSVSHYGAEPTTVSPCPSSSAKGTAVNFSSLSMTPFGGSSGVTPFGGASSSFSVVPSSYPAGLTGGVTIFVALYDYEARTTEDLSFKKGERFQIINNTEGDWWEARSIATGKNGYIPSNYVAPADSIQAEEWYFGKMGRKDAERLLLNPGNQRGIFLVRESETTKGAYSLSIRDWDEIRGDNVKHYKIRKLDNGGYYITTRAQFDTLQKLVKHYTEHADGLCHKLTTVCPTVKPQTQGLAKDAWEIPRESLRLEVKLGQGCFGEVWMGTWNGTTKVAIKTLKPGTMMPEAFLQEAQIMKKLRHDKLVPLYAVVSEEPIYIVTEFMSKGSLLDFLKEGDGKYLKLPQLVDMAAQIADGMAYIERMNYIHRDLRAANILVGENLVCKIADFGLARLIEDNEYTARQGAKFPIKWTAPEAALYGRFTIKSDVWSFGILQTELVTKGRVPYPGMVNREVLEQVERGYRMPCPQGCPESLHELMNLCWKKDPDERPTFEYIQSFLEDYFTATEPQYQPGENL
# ZAP-70(h) = ZAP-70(h) (Homo sapiens, UniProt P43403); experiment: Isolated kinase activity, ZAP-70; format: biochemical; details: @ 10 μM
# ZAP-70(h), sequence (P43403 whole entry): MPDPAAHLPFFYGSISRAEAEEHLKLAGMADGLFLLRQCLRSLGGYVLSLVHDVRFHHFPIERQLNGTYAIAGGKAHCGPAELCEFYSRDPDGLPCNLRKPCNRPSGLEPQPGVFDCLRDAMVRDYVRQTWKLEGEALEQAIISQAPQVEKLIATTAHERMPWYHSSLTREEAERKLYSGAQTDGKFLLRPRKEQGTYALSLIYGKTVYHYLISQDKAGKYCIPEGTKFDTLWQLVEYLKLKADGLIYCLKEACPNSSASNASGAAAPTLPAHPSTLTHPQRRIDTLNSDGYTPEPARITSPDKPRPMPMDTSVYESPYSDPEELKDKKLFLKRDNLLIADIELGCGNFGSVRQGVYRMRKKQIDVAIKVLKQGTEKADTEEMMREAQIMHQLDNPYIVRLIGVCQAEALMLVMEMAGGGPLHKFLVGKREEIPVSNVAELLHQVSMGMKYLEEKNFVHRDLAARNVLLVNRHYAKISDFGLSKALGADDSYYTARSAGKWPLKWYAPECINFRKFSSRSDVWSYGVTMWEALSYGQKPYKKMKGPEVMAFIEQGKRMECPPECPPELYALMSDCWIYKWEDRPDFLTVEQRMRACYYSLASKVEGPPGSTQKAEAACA
# PI3 kinase = experiment: Isolated kinase activity, PI3 kinase; format: biochemical; details: @ 10 μM
# isolated Src = isolated Src (Homo sapiens, UniProt P12931); experiment: Titration against isolated Src; format: biochemical
# isolated FAK = isolated FAK (Homo sapiens, UniProt Q05397); experiment: Titration against isolated FAK; format: biochemical
# isolated FAK, sequence (Q05397 whole entry): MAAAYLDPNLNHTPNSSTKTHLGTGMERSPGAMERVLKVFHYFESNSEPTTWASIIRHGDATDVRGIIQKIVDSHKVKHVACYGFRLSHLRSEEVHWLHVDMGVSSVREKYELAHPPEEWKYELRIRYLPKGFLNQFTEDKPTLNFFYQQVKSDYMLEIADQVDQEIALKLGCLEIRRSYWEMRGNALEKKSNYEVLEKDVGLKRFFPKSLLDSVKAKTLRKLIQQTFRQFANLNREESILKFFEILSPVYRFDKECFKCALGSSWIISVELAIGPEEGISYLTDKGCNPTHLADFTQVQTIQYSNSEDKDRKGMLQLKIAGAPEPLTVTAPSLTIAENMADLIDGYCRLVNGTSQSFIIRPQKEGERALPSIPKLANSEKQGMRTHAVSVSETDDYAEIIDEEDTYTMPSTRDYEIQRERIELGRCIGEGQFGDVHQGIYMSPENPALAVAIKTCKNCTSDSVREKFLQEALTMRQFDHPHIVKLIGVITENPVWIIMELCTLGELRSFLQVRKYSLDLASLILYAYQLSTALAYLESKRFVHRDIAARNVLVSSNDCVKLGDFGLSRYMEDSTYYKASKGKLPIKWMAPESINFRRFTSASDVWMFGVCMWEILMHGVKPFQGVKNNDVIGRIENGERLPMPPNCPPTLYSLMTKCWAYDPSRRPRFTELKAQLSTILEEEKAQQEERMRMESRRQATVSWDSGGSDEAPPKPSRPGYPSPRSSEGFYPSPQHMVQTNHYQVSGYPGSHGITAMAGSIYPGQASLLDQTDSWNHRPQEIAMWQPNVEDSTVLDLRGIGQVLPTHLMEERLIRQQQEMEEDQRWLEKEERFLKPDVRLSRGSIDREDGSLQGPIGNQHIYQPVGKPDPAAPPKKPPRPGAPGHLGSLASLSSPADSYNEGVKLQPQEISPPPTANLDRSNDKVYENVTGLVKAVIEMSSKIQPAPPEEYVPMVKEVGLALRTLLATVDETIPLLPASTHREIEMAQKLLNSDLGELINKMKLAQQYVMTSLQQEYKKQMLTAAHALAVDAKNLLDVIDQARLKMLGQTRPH
# Src = biological target: T1, Src (Homo sapiens, UniProt P12931, Y530F); experiment: Src kinase activity in whole cells (auto- and transphosphorylation, PAGE/antibodies); format: cell-based
# T1 construct: expressed in transfected cells; host or cells: c-Src527F/NIH-3T3 (mouse fibroblasts transfected with human c-Src Y527F); part of the results come from HT-29 (endogenous human Src)
# Description: (§5) AZ28 serves as a positive comparator to show what a validated Src inhibitor should do in these assays. After treatment with compound, cells were lysed, subjected to PAGE and probed with a battery of antibodies. […] In addition, off-target protein phosphorylation was also investigated. Further, induction of apoptosis was evaluated via Caspase 3 cleavage. Multiple doses of each compound were tested because the trends in response to increasing drug concentration are the most reliable indicator of activity.
# Caspase-3 cleavage = experiment: Induction of apoptosis via Caspase 3 cleavage; format: cell-based; details: HT29 and c-Src527F/NIH-3T3 cells
# Description: as §5
# Cleavage of Caspase-3 is a good measure of induction of apoptosis.
# total phosphotyrosine = experiment: Total phosphotyrosine levels in cells; format: cell-based; details: HT29 and c-Src527F/NIH-3T3 cells
# Description: as §5
# [2] = biological target: T2, PDGF receptor tyrosine kinase Y572/574 (Mus musculus, UniProt P26618); experiment: PDGF receptor autophosphorylation in whole cells; format: cell-based
# T2 construct: endogenous in cells; host or cells: c-Src527F/NIH-3T3
# Description: as §5
# This is thought not to be a direct Src substrate in cells.
# FAK Y397 = experiment: FAK autophosphorylation in whole cells; format: cell-based; details: c-Src527F/NIH3T3 cells
# Description: as §5
# FAK Y397 is mainly a FAK autophosphorylation site and only a poor Src transphorylation site. AZ28 is not a potent FAK inhibitor (see isolated enzyme data in Example 8).
# [3] = tested on: EGFR tyrosine kinase (EGF Y845); experiment: EGFR tyrosine kinase autophosphorylation in whole cells; format: cell-based
# Description: as §5
# This site is not a direct Src phosphorylation site.
# A549 cells = experiment: Cell growth inhibition (BrdU assay), A549; format: cell-based, human; details: A549 (Lung); Drug 1 = Tarceva
# Description: (§6) Cell lines being evaluated are: SKOV-2, K562, HT-29, A549, and MDA231. […] Except MDA231, this line is grown at 37° C. and 0% CO2.
# (§7) Except MDA231, this line is grown at 37° C. and 0% CO2. Brdu assay was performed at T=0 and T=72.
# (§8) Growth Inhibition. The BrdU data was used to determine the % growth inhibition for each sample concentration using the formula:
# (§9) where T0=Fluorescence of cells at time 0; T1=Fluorescence of treated cells at x hours; Con=Fluorescence of control cells at x hours. T1 values T0 values were designated as T, cytotoxicity. The GI50 was estimated using XLFit excluding T1 values T0 (cytotoxicity).
# SKOV-3 cells = experiment: Cell growth inhibition (BrdU assay), SKOV-3; details: SKOV-3 (Ovarian); Drug 1 = taxol
# Description: as §6, §7, §8, §9
structure (smiles),measurement,setting,value
"O=C(Cc1ccc(-c2ccc(OCCN3CCOCC3)cc2)cn1)NCc1ccccc1 [Compound (I): 2HCl, 2-(5-(4-(2-morpholinoethoxy)phenyl)pyridin-2-yl)-N-benzylacetamide dihydrochloride salt]",inhibition at 10 µM,HBV,48.2%
Cc1nc(Nc2ncc(C(=O)Nc3c(C)cccc3Cl)s2)cc(N2CCN(CCO)CC2)n1 [Dasatinib],GI50,Jurkat cells,8 nM
same,IC50,H460 cells,90 nM
same,body weight,[1],weight loss
"Nc1ccn([C@@H]2O[C@H](CO)[C@@H](O)C2(F)F)c(=O)n1 [Gemcitabine, gemcitabine]",GI50,"L3.6pl cell line; Homo sapiens, L3.6pl, BrdU, T=72, read-out: GI50, Single",1.76 nM
same,Drug 1:compound (I) GI50 ratio,"L3.6pl cell line; L3.6pl (Pancreas), Drug 1 = Gemcitabine",1/13
COc1cc2c(Nc3c(Cl)ccc4c3OCO4)ncnc2cc1OCCCN1CCCCC1 [KX2-328],GI50,"HT29 cell line; Homo sapiens, HT-29, HT29 (Colon), read-out: GI50",647 nM
same,GI50,"HT29 cell line; Homo sapiens, HT-29, HT29, read-out: GI50",794 nM
same,GI50,"HT29 cell line; Homo sapiens, HT-29, NCI human colon cancer cell line HT29",794 nM
same,activity at 0.05 µM,"HT29 cell line; Homo sapiens, HT-29, 50 nM, read-out: HT-29 Growth, % of Control, Mean, n = 3",73%
same,activity at 0.5 µM,"HT29 cell line; Homo sapiens, HT-29, 500 nM, read-out: HT-29 Growth, % of Control, Mean, n = 3",10%
same,activity at 5 µM,"HT29 cell line; Homo sapiens, HT-29, 5 uM, read-out: HT-29 Growth, % of Control, Mean, n = 3",< 0%
same,GI50,"c-Src527F/NIH3T3 cells; NIH3T3, c-Src 3T3",99 nM
same,GI50,"c-Src527F/NIH3T3 cells; NIH3T3, c-Src527F/NIH3T3",87 nM
same,GI50,"c-Src527F/NIH3T3 cells; NIH3T3, c-Src/NIH-3T3 engineered cell line",99 nM
same,activity at 0.1 µM,"c-Src527F/NIH3T3 cells; NIH3T3, 100 nM, read-out: c-Src 3T3 Growth, % of Control, Mean, n = 3",13%
same,activity at 1 µM,"c-Src527F/NIH3T3 cells; NIH3T3, 1.0 uM, read-out: c-Src 3T3 Growth, % of Control, Mean, n = 3",< 0%
same,activity at 10 µM,"c-Src527F/NIH3T3 cells; NIH3T3, 10 uM, read-out: c-Src 3T3 Growth, % of Control, Mean, n = 3",< 0%
same,percent activity of isolated kinase relative to control (untreated),Abl(h),1%
same,percent activity of isolated kinase relative to control (untreated),EGFR(h),3%
same,percent activity of isolated kinase relative to control (untreated),FGFR2(h),94%
same,percent activity of isolated kinase relative to control (untreated),Fyn(h),2%
same,percent activity of isolated kinase relative to control (untreated),IGF-1R(h),110%
same,percent activity of isolated kinase relative to control (untreated),IR(h),125%
same,percent activity of isolated kinase relative to control (untreated),Lck(h),1%
same,percent activity of isolated kinase relative to control (untreated),Lyn(h),0%
same,percent activity of isolated kinase relative to control (untreated),MAPK2(h),105%
same,percent activity of isolated kinase relative to control (untreated),PDGFRβ(h),98%
same,percent activity of isolated kinase relative to control (untreated),PKCα(h),111%
same,percent activity of isolated kinase relative to control (untreated),Pyk2(h),43%
same,percent activity of isolated kinase relative to control (untreated),Yes(h),1%
same,percent activity of isolated kinase relative to control (untreated),ZAP-70(h),97%
same,percent activity of isolated kinase relative to control (untreated),PI3 kinase,99%
same,IC50,isolated Src,8 nM
same,fold less potent against cell growth than against isolated Src,isolated Src,10-100 ×
same,IC50,isolated FAK,> 500 nM
same,fold less potent against isolated FAK (than isolated Src),isolated FAK,≥ 100 ×
same,phosphorylation of Paxillin Y-31 (Src transphosphorylation substrate),Src; c-Src527F/NIH-3T3 cells,inhibited Src trans-phosphorylation
same,phosphorylation of FAK Tyr 925 (Src transphosphorylation substrate),Src; whole cells,inhibited Src trans-phosphorylation
same,phosphorylation of Shc Y239/240 (Src transphosphorylation substrate),Src; whole cells,inhibited Src trans-phosphorylation
same,induction of apoptosis (Caspase-3 cleavage),Caspase-3 cleavage,not effective in inducing apoptosis
same,total phosphotyrosine levels,total phosphotyrosine,reduction in the total phosphotyrosine levels
same,PDGF receptor autophosphorylation (Y572/574),[2],dose response reduction
same,FAK autophosphorylation (Y397),FAK Y397,some inhibition
same,EGFR tyrosine kinase autophosphorylation,[3],potently inhibits
C#Cc1cccc(Nc2ncnc3cc(OCCOC)c(OCCOC)cc23)c1 [Tarceva],Drug 1:compound (I) GI50 ratio,A549 cells,134
O=C1[O][Pt]2([NH][C@@H]3CCCC[C@H]3[NH]2)[O]C1=O [oxaliplatin],Drug 1:compound (I) GI50 ratio,"HT29 cell line; HT29 (Colon), Drug 1 = oxaliplatin",59
CC(=O)O[C@H]1C(=O)[C@@]2(C)[C@H]([C@H](OC(=O)c3ccccc3)[C@]3(O)C[C@H](OC(=O)[C@H](O)[C@@H](NC(=O)c4ccccc4)c4ccccc4)C(C)=C1C3(C)C)[C@]1(OC(C)=O)CO[C@@H]1C[C@@H]2O [taxol],Drug 1:compound (I) GI50 ratio,SKOV-3 cells,0.40
